Entries after “also recorded” stand apart in the source; their conditions may differ.

For data set [1], the system named is RSV. The experiment in a line: 18:1 DEPX interference with RSV infection in vivo (BALB/c mice). Details: species or system mouse. The protocol:
Six-week-old female BALB/c mice were obtained from Jackson Laboratory. Mice were anesthetized with isoflurane and through intranasal inoculation a 50 μL volume of PBS control, 18:1 DEPX lipid alone, 18:1 DEPX+RSV or RSV only was delivered to mice. Mice were infected with 1×10^7 pfu/mL RSV. 18:1 DEPX liposomes were delivered to mice at a final amount of 100 μg. For lipid antagonism, RSV and 18:1 DEPX were mixed together in PBS prior to inoculation. Five days following initial infection, mice were euthanized by asphyxiation with carbon dioxide following prescribed guidelines by the IACUC. Next, mice were dissected to expose the trachea where a small cut was made to insert a luer stub. The lungs were then lavaged with 1 mL of saline. The chest cavity was opened and the lungs perfused with PBS and then removed. The left lung was homogenized in 1 mL of serum-free DMEM, the homogenates were centrifuged at 3800 rcf for 15 minutes at 4° C. and supernatant was used for quantitative plaque assay analysis. Lower right lungs were fixed overnight in 10% buffered formalin, then dehydrated and paraffin-embedded. Lungs were then sliced and stained with Hematoxylin-Eosin (H&E) for microscopy pictures and histopathological scoring. Total cell counts were determined from BALF and cell types were assessed by cytospin. IFN-γ was quantified by ELISA from the cell-free supernatants of BALF. The upper right lung was homogenized, RNA was extracted, converted to cDNA and RSV replication was determined by quantitative PCR of the F protein.
Female BALB/C mice were obtained from Jackson Laboratories at 6 weeks of age. The experiment consisted of four groups, a PBS control, 18:1 DEPX liposomes alone, 18:1 DEPX liposomes+RSV and RSV alone. Mice were inoculated with RSV at 1×10^7 pfu/mL. 100 μg 18:1 DEPX was the dose tested for protective effects in the mouse lung. Each mouse group underwent intranasal inoculation for delivery of experimental conditions in a final volume of 50 μL. Mice were monitored daily and body weight was recorded. At the height of RSV infection on day 5, the mice were euthanized. Bronchoalveolar lavage fluid (BALF) was collected, the chest cavity was opened and the lungs removed. The left lobe of the lungs was homogenized in serum-free DMEM, centrifuged at 3800 rcf for 15 minutes at 0° C. and the supernatant collected for quantitative plaque assay described in the previous chapter. The lower right lobe of the lung was fixed overnight in 10% buffered formalin and then processed by paraffin embedding, slicing and fixing of the lung to a microscope slide and H&E staining. The upper right lobe of the lung was homogenized, RNA was extracted and converted to cDNA and then quantitative real-time PCR was used to determine RSV replication by quantification of the F protein. Cells within BALF were quantified and assessed for cell populations by cytospin. BALF supernatant was stored and subsequently used for IFNγ quantification.
On day 5 following RSV infection mice were sacrificed by carbon dioxide asphyxiation according to IACUC protocol. Mice were dissected to expose the trachea where a small cut was made for the insertion of a leur stub and the lungs were lavaged with 1 mL of saline. A 20 μL aliquot was obtained from BALF collected and cellular infiltration into the lungs was quantified using a hemocytometer. The remaining lavage fluid was centrifuged at 500×g for 5 minutes, supernatant was collected and cells were resuspended in PBS for cytospin. In studies shown in FIG. 11, mice were challenged with either saline (CNTL), or 10^7 virus (RSV), or virus plus 18:1 DEPX (18:1 DEPX+RSV), or lipid alone (18;1 DEPX). The mice received all agents in a volume of 50 μl applied intranasally. On day 6 the mice were euthanized and the lungs were lavaged with saline. The cells in the lavage were recovered by centrifugation and quantified by counting using a hemocytometer. In RSV infected mice cell numbers were ˜120×10^4. […]

The test system of data set [2] is RSV. The description is as above. Details: species or system mouse. Conditions: 250 μg 18:1 DEPX intranasal, day 6.
Setting [3] is: 18:1 DEPX alone, 100 μg intranasal.

As for `CCCCCCCCC=CCCCCCCCCOCC(COP(=O)(O)OCC(O)C(O)C(O)CO)OCCCCCCCCC=CCCCCCCCC` (mixture of isomers) [18:1 DEPX, sn-1-O-octadecenyl, sn-2-O-octadecenyl sn-3 glycerol phosphoxylitol], in the data set on RSV [1] (setting [3]), the “daily body weight, lipid alone vs control mice” value is recorded as “no difference in daily body weight” and the “number of cells in lavage, lipid alone vs control” value is given as “no difference in number of cells”. Moreover, the “IFNγ in BALF compared to RSV alone” value in the data set with RSV [1] (18:1 DEPX+RSV mice) was “reduced; also recorded: significantly lower”. The “cell numbers in lavage” value in the data set on RSV [1] (18:1 DEPX+RSV mice, 1 mL BALF, FIG. 11) is reported as ~20×10^4. The “IFNγ in BALF” value in the data set on RSV [1] (18:1 DEPX+RSV mice, day 5) is listed as “Around 1 ng/mL”. Further, in the data set with RSV [1] (18:1 DEPX+RSV vs RSV alone), the “cellular infiltration into the lungs (BALF)” value was “suppresses an overabundance of cellular infiltration; also recorded: decreased number of inflammatory cellular infiltrates; also recorded: suppresses influx of inflammatory cells; also recorded: reduced cellular infiltrates; also recorded: significantly lower amounts of cellular infiltrates” and the “reduction of viral plaque number” value is 50%. Moreover, the lung histopathology entry in the data set on RSV [1] (18:1 DEPX+RSV vs RSV alone, H&E) is on record as “appeared less affected by the virus”. For the same compound, the “reduction in RSV expression (qPCR)” value in the data set on RSV [1] (first viral challenge experiment) is given as 2.6 fold. Further, the “reduction of RSV expression by a factor of (qPCR)” value in the data set on RSV [1] (latter two experiments) was determined as 6.2. Also, the “viral load / RSV infection in lung compared to RSV mice” value in the data set with RSV [1] (plaque assay and qPCR) is listed as “reduces viral copy number; also recorded: inhibited RSV infection; also recorded: reduced viral load”. Moreover, in the data set with RSV [2], the “reduction of viral burden by a factor of (qRT-PCR, FIGS. 12A and 12B)” value turned out to be 6.2.

The values are drawn from patent US12472193B2, “Methods and compositions for treating and preventing respiratory related diseases and conditions with xylitol-headgroup lipid analogs” (National Jewish Health, priority 2017, dated 2025).
